Source: patent publication US20240270740A1, “INHIBITORS OF CYCLIC GMP-AMP SYNTHASE AND USES THEREOF” (Ventus Therapeutics U.S., Inc., priority 2022, published 2024)
pIC50: −log10 of the molar value.

Target: hcGAS (Homo sapiens, UniProt Q8N884)
Assay: hcGAS LCMS assay (direct measurement of cGAMP production)
Assay type: biochemical
Settings: 0.5 nM hcGAS, 100 μM ATP, 100 μM GTP, 25 nM dsDNA, 4 h incubation
Procedure: cGAS catalyzes the cyclization of ATP and GTP to produce cGAMP, which is the activating ligand of STING. Human cGAS (hcGAS) inhibition can thus be quantified by measuring how much cGAMP is formed either indirectly, by monitoring ATP-depletion as in the hcGAS Kinase-Glo assay (as described below), or directly, such as using the hcGAS LCMS assay (as described below).
Compounds were tested for their h-cGAS inhibition activity using direct measurement of cGAMP production by LC/MS. Briefly, compounds were incubated with enzyme and substrates for 4 hours (see Table C), before the reaction was stopped with 3 volumes of 70/30 Acetonitrile/H2O mix containing 0.15 mM cGAMP-^13C10^5N5 as internal standard and mixed for […]. After centrifugation (3700 rpm, 10 min, 10° Celsius), […] of each reaction was collected and mixed to equal volume of Acetonitrile. Samples were then analyzed on Qexective (Column: XBridge BEH Amide Column, 130 Å, 3.5 μm, 3 mm×50 mm, Mobile phase A: 10 mM Ammonium acetate in 95/5% H2O/Acetonitrile (0.5% DMSO), Mobile phase B: Acetonitrile (0.5% DMSO).
The results of the assay, expressed as IC50 values, are reported in Table D with the following designations: A represents an IC50 value<0.005 μM; B represents an IC50 value≥0.005 μM and <0.02 μM, C represents an IC50 value≥0.02 μM and <0.06 μM; D represents an IC50 value≥0.06 and <0.2 μM; E represents an IC50 value≥0.2.

Sequence of hcGAS (Q8N884 whole entry): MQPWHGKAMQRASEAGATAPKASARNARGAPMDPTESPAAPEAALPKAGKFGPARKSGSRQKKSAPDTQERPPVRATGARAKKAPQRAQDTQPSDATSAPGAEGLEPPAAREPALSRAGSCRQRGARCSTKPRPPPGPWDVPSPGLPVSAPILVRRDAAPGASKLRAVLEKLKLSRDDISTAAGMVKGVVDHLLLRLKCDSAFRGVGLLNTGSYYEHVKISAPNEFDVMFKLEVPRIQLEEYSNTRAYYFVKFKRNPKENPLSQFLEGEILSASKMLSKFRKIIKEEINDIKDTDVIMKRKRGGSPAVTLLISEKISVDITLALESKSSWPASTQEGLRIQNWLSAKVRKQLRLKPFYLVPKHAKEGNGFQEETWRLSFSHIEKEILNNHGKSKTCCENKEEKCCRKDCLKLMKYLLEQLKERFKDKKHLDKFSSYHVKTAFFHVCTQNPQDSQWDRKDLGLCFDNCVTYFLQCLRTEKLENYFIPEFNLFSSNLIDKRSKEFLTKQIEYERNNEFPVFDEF

**Q.** COC[C@@H](Nc1cc(C(=O)Nc2nnc(-n3nccc3C)s2)oc(=O)c1OC)C(C)C [Compound 77, (S)-3-methoxy-4-((1-methoxy-3-methylbutan-2-yl)amino)-N-(5-(5-methyl-1H-pyrazol-1-yl)-1,3,4-thiadiazol-2-yl)-2-oxo-2H-pyran-6-carboxamide] was tested. Which pIC50 did it give?
**A.** 7.70 to 8.30

**Q.** How did the pIC50 turn out when COc1c(N[C@@H](C)[C@@H](C)OC)cc(C(=O)Nc2nnc(-n3nccc3C)s2)oc1=O [Compound 207, 3-methoxy-4-(((2S,3R)-3-methoxybutan-2-yl)amino)-N-(5-(5-methyl-1H-pyrazol-1-yl)-1,3,4-thiadiazol-2-yl)-2-oxo-2H-pyran-6-carboxamide] was run?
**A.** 7.22 to 7.70

**Q.** How did the pIC50 turn out when COCCN(CCO)c1cc(C(=O)Nc2nnc(-n3nccc3C)s2)oc(=O)c1OC (single isomer, unassigned) [Compound 157, 4-((2-hydroxyethyl)(2-methoxyethyl)amino)-3-methoxy-N-(5-(5-methyl-1H-pyrazol-1-yl)-1,3,4-thiadiazol-2-yl)-2-oxo-2H-pyran-6-carboxamide] was run?
**A.** ≤ 6.70

**Q.** With COCCNc1cc(C(=O)Nc2nnc(-c3cscc3C#N)s2)oc(=O)c1OC [Compound 138, N-[5-(4-cyanothiophen-3-yl)-1,3,4-thiadiazol-2-yl]-5-methoxy-4-[(2-methoxyethyl)amino]-6-oxopyran-2-carboxamide] as the molecule, how does the pIC50 read?
**A.** ≤ 6.70

**Q.** COc1c(N[C@@H]2CCCC[C@@H]2OC)cc(C(=O)Nc2nnc(-n3nccc3C)s2)oc1=O [Compound 52, 3-methoxy-4-(((1R,2S)-2-methoxycyclohexyl)amino)-N-(5-(5-methyl-1H-pyrazol-1-yl)-1,3,4-thiadiazol-2-yl)-2-oxo-2H-pyran-6-carboxamide] was tested. Which pIC50 did it give?
**A.** 7.70 to 8.30

**Q.** COC[C@H]1CCN1c1cc(C(=O)Nc2nnc(-n3nccc3C)s2)oc(=O)c1OC [Compound 194, (R)-3-methoxy-4-(2-(methoxymethyl)azetidin-1-yl)-N-(5-(5-methyl-1H-pyrazol-1-yl)-1,3,4-thiadiazol-2-yl)-2-oxo-2H-pyran-6-carboxamide] was tested. Which pIC50 did it give?
**A.** 7.70 to 8.30

**Q.** COC[C@@H]1CCC[C@@H]1Nc1cc(C(=O)Nc2nnc(-n3nccc3C)s2)oc(=O)c1OC (single isomer, unassigned) [Compound 79*] was tested. Which pIC50 did it give?
**A.** 6.70 to 7.22

**Q.** How did the pIC50 turn out when COc1c(N[C@@H]2CCC[C@@H]2C#N)cc(C(=O)Nc2nnc(-n3nccc3C)s2)oc1=O (single isomer, unassigned) [Compound 73] was run?
**A.** > 8.30

**Q.** With COc1c(N[C@@H]2CC[C@@H]2OC)cc(C(=O)Nc2nnc(-n3nccc3C)s2)oc1=O (single isomer, unassigned) [122*] as the molecule, how does the pIC50 read?
**A.** 7.70 to 8.30

**Q.** With COc1c(N[C@H]2CCC[C@H]2O)cc(C(=O)Nc2nnc(-n3nccc3C)s2)oc1=O [Compound 5, 4-(((1S,2R)-2-hydroxycyclopentyl)amino)-3-methoxy-N-(5-(5-methyl-1H-pyrazol-1-yl)-1,3,4-thiadiazol-2-yl)-2-oxo-2H-pyran-6-carboxamide] as the molecule, how does the pIC50 read?
**A.** 7.70 to 8.30

**Q.** COc1c(N[C@H]2CC[C@H]2OC)cc(C(=O)Nc2nnc(-n3nccc3C)s2)oc1=O (single isomer, unassigned) [123*] was tested. Which pIC50 did it give?
**A.** 7.70 to 8.30

**Q.** COc1c(N[C@@H]2CCN(C)C2=O)cc(C(=O)Nc2nnc(-n3nccc3C)s2)oc1=O (single isomer, unassigned) [72*] was tested. Which pIC50 did it give?
**A.** 7.70 to 8.30

**Q.** How did the pIC50 turn out when COc1c(N2CCC[C@@H]2CC#N)cc(C(=O)Nc2nnc(-n3nccc3C)s2)oc1=O [Compound 174, (R)-4-(2-(cyanomethyl)pyrrolidin-1-yl)-3-methoxy-N-(5-(5-methyl-1H-pyrazol-1-yl)-1,3,4-thiadiazol-2-yl)-2-oxo-2H-pyran-6-carboxamide] was run?
**A.** 7.22 to 7.70

**Q.** How did the pIC50 turn out when COCCOc1c(N[C@H]2CCC[C@H]2O)cc(C(=O)Nc2nnc(-c3c(Cl)ccn3C)s2)oc1=O [Compound 85, N-(5-(3-chloro-1-methyl-1H-pyrrol-2-yl)-1,3,4-thiadiazol-2-yl)-4-(((1S,2R)-2-hydroxycyclopentyl)amino)-3-(2-methoxyethoxy)-2-oxo-2H-pyran-6-carboxamide] was run?
**A.** 7.70 to 8.30

**Q.** With COC[C@@H](C)Nc1cc(C(=O)Nc2nnc(-c3sccc3Cl)s2)oc(=O)c1OC [Compound 94, (R)—N-(5-(3-chlorothiophen-2-yl)-1,3,4-thiadiazol-2-yl)-3-methoxy-4-((1-methoxypropan-2-yl)amino)-2-oxo-2H-pyran-6-carboxamide] as the molecule, how does the pIC50 read?
**A.** 7.70 to 8.30

**Q.** How did the pIC50 turn out when COCC(COC)Nc1cc(C(=O)Nc2nnc(-c3c(Cl)ccn3C)s2)oc(=O)c1OC [Compound 84, N-(5-(3-chloro-1-methyl-1H-pyrrol-2-yl)-1,3,4-thiadiazol-2-yl)-4-((1,3-dimethoxypropan-2-yl)amino)-3-methoxy-2-oxo-2H-pyran-6-carboxamide] was run?
**A.** > 8.30

**Q.** How did the pIC50 turn out when COC[C@H](Nc1cc(C(=O)Nc2nnc(-n3nccc3C)s2)oc(=O)c1OC)C1CC1 (single isomer, unassigned) [Compound 21*] was run?
**A.** 7.70 to 8.30

**Q.** With COc1c(NCCOC2CC2)cc(C(=O)Nc2nnc(-n3nccc3C)s2)oc1=O [Compound 168, 4-((2-cyclopropoxyethyl)amino)-3-methoxy-N-(5-(5-methyl-1H-pyrazol-1-yl)-1,3,4-thiadiazol-2-yl)-2-oxo-2H-pyran-6-carboxamide] as the molecule, how does the pIC50 read?
**A.** 6.70 to 7.22

**Q.** With COc1c(N[C@H]2CCCC[C@H]2OC)cc(C(=O)Nc2nnc(-n3nccc3C)s2)oc1=O [Compound 27, 3-methoxy-4-(((1S,2R)-2-methoxycyclohexyl)amino)-N-(5-(5-methyl-1H-pyrazol-1-yl)-1,3,4-thiadiazol-2-yl)-2-oxo-2H-pyran-6-carboxamide] as the molecule, how does the pIC50 read?
**A.** 7.70 to 8.30

**Q.** COc1c(NC[C@@H]2CCO2)cc(C(=O)Nc2nnc(-n3nccc3C)s2)oc1=O [Compound 93, (S)-3-methoxy-N-(5-(5-methyl-1H-pyrazol-1-yl)-1,3,4-thiadiazol-2-yl)-4-((oxetan-2-ylmethyl)amino)-2-oxo-2H-pyran-6-carboxamide] was tested. Which pIC50 did it give?
**A.** 7.22 to 7.70

**Q.** COc1c(N[C@@H]2CCCC[C@H]2OC)cc(C(=O)Nc2nnc(-n3nccc3C)s2)oc1=O [Compound 202, 3-methoxy-4-(((1R,2R)-2-methoxycyclohexyl)amino)-N-(5-(5-methyl-1H-pyrazol-1-yl)-1,3,4-thiadiazol-2-yl)-2-oxo-2H-pyran-6-carboxamide] was tested. Which pIC50 did it give?
**A.** 7.70 to 8.30

**Q.** How did the pIC50 turn out when COc1c(NC[C@H]2CCCO2)cc(C(=O)Nc2nnc(-n3nccc3C)s2)oc1=O [Compound 20, (R)-3-methoxy-N-(5-(5-methyl-1H-pyrazol-1-yl)-1,3,4-thiadiazol-2-yl)-2-oxo-4-(((tetrahydrofuran-2-yl)methyl)amino)-2H-pyran-6-carboxamide] was run?
**A.** 7.22 to 7.70

**Q.** How did the pIC50 turn out when COC[C@@H](C)Nc1cc(C(=O)Nc2nnc(-c3c(Cl)ccn3C)s2)oc(=O)c1OC [Compound 128, (R)-N-(5-(3-chloro-1-methyl-1H-pyrrol-2-yl)-1,3,4-thiadiazol-2-yl)-3-methoxy-4-((1-methoxypropan-2-yl)amino)-2-oxo-2H-pyran-6-carboxamide] was run?
**A.** > 8.30

**Q.** With COCC(COC)Nc1cc(C(=O)Nc2nnc(-n3nccc3CO)s2)oc(=O)c1OC [Compound 143, 4-((1,3-dimethoxypropan-2-yl)amino)-N-(5-(5-(hydroxymethyl)-1H-pyrazol-1-yl)-1,3,4-thiadiazol-2-yl)-3-methoxy-2-oxo-2H-pyran-6-carboxamide] as the molecule, how does the pIC50 read?
**A.** 7.22 to 7.70

**Q.** How did the pIC50 turn out when CC[C@H](COC)Nc1cc(C(=O)Nc2nnc(-n3nccc3C)s2)oc(=O)c1OC (single isomer, unassigned) [191*] was run?
**A.** 7.22 to 7.70

**Q.** How did the pIC50 turn out when COc1c(N2CC[C@H](OC)C2=O)cc(C(=O)Nc2nnc(-n3nccc3C)s2)oc1=O [Compound 151, 5-methoxy-4-[(3S)-3-methoxy-2-oxopyrrolidin-1-yl]-N-[5-(5-methylpyrazol-1-yl)-1,3,4-thiadiazol-2-yl]-6-oxopyran-2-carboxamide] was run?
**A.** 7.70 to 8.30

**Q.** How did the pIC50 turn out when COC[C@H](Nc1cc(C(=O)Nc2nnc(-c3c(Cl)ccn3C)s2)oc(=O)c1OC)c1ccccc1 [Compound 213, (R)-N-(5-(3-chloro-1-methyl-1H-pyrrol-2-yl)-1,3,4-thiadiazol-2-yl)-3-methoxy-4-((2-methoxy-1-phenylethyl)amino)-2-oxo-2H-pyran-6-carboxamide] was run?
**A.** > 8.30

**Q.** How did the pIC50 turn out when COCC(C)(C)COc1c(NC23CC(C2)C3)cc(C(=O)Nc2nnc(-n3nccc3C)s2)oc1=O [Compound 149, 4-(bicyclo[1,1,1]pentan-1-ylamino)-(3-methoxy-2,2-dimethylpropoxy)-N-(5-(5-methyl-1H-pyrazol-1-yl)-1,3,4-thiadiazol-2-yl)-2-oxo-2H-pyran-6-carboxamide] was run?
**A.** 7.70 to 8.30

**Q.** How did the pIC50 turn out when COc1c(N[C@H](C)[C@H](C)OC)cc(C(=O)Nc2nnc(-n3nccc3C)s2)oc1=O [Compound 166, 3-methoxy-4-(((2R,3S)-3-methoxybutan-2-yl)amino)-N-(5-(5-methyl-1H-pyrazol-1-yl)-1,3,4-thiadiazol-2-yl)-2-oxo-2H-pyran-6-carboxamide] was run?
**A.** > 8.30

**Q.** COc1c(N[C@@H]2Cc3ccccc3[C@@H]2O)cc(C(=O)Nc2nnc(-n3nccc3C)s2)oc1=O (racemic) [Rac-81, 4-(((1S,2R)-1-hydroxy-2,3-dihydro-1H-inden-2-yl)amino)-3-methoxy-N-(5-(5-methyl-1H-pyrazol-1-yl)-1,3,4-thiadiazol-2-yl)-2-oxo-2H-pyran-6-carboxamide] was tested. Which pIC50 did it give?
**A.** ≤ 6.70
